Laboratory results from PubChem BioAssay (NCI).
Several values for one entry are separate records, joined by “and”; a condition that tells them apart may be missing. Identical values can stand only once.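 How tested: cells in 96-well plates exposed to compound for 48 hours at five concentrations. The concentration for 50% growth inhibition is given as GI50. TGI is the concentration that stops growth completely.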

Experiments:
Assay in all cases: NCI tumour cell line growth inhibition, 48 h
786-0 renal = system: 786-0 renal
HL-60(TB) leukemia = system: HL-60(TB) leukemia
NCI-H460 lung = system: NCI-H460 lung
SNB-19 CNS = system: SNB-19 CNS
UACC-257 melanoma = system: UACC-257 melanoma
ACHN renal = system: ACHN renal
OVCAR-8 ovarian = system: OVCAR-8 ovarian
SR leukemia = system: SR leukemia
EKVX NSCLC = system: EKVX NSCLC
HCT-116 colon = system: HCT-116 colon

| Structure (SMILES) | GI50 (786-0 renal) | TGI (786-0 renal) | GI50 (HL-60(TB) leukemia) [nM] | TGI (HL-60(TB) leukemia) [µM] | GI50 (NCI-H460 lung) | TGI (NCI-H460 lung) [µM] | GI50 (SNB-19 CNS) | TGI (SNB-19 CNS) [µM] | GI50 (UACC-257 melanoma) [nM] | TGI (UACC-257 melanoma) [µM] | GI50 (ACHN renal) | TGI (ACHN renal) [µM] | GI50 (OVCAR-8 ovarian) | TGI (OVCAR-8 ovarian) | GI50 (SR leukemia) | TGI (SR leukemia) [µM] | GI50 (EKVX NSCLC) [µM] | TGI (EKVX NSCLC) [µM] | GI50 (HCT-116 colon) | TGI (HCT-116 colon) |
| --- | --- | --- | --- | --- | --- | --- | --- | --- | --- | --- | --- | --- | --- | --- | --- | --- | --- | --- | --- | --- |
| CN1CCN(c2nc(NCCNc3ccnc4cc(Cl)ccc34)c3ccccc3n2)CC1 | 2330 nM | 10 µM | 1740 | 3.5 | 1700 nM | 6.49 | 3.34 µM | 15.2 | 1710 | 3.18 | 2850 nM | 8.27 | 2120 nM | 5.75 µM | 1300 nM | 3.67 | 3.86 | 17.3 | 448 nM | 7.62 µM |
| O=C(NCCc1ccccc1)C(c1csc2ccccc12)N(C(=O)CCl)c1ccc(-c2cnco2)cc1 (stereo unspecified) | 19.7 nM | 0.038 µM | 762 | 2.8 | 631 nM | – | 1.7 µM | 3.16 | 1630 | 3.17 | 139 nM | 0.537 | 169 nM | 1.28 µM | 26.8 nM | 0.107 | 0.543 | 2.3 | 889 nM | 2.37 µM |
| CCSc1sc(-c2ccc(C)cc2)nc1[P+](c1ccccc1)(c1ccccc1)c1ccccc1 | 375 nM | 1.57 µM | 206 | 0.542 | 306 nM | 1.12 | 0.332 µM | 1.39 | 294 | 1.05 | 285 nM | 1.01 | 313 nM | 1.89 µM | 354 nM | 3.47 | 0.244 | 0.904 | 252 nM | 1.17 µM |
| COc1cc(OC)c(Oc2cccc(OC)c2OC)c(OC)c1 | – | > 100 µM | – | – | – | > 100 | – | > 100 | – | > 100 | – | > 100 | – | > 100 µM | – | > 100 | – | > 100 | – | > 100 µM |
| COc1cc2c3c(c1OC)C1(C=CC(=O)C=C1)CC3N(C(=O)OC(C)(C)C(Cl)(Cl)Cl)CC2 (stereo unspecified) | – | 28.8 µM | – | 8.26 | – | 30.8 | – | 32.2 | – | 26.2 | – | – | – | 31.5 µM | – | 23.4 | – | 45.2 | – | 19 µM |
| NC(=O)c1ncn(C2CCC(CP(=O)(O)O)C2)c1N (stereo unspecified) | – | > 100 µM | – | – | – | > 100 | – | > 100 | – | > 100 | – | > 100 | – | > 100 µM | – | > 100 | – | > 100 | – | > 100 µM |
| CC(C)(C)NC(=O)C12C3C4C1C1C2C3C41I (stereo unspecified) | – | > 100 µM | – | > 100 | – | > 100 | – | > 100 | – | > 100 | – | – | – | > 100 µM | – | > 100 | – | – | – | > 100 µM |
| Cn1c(=O)c2[nH]c(Nc3ccccc3)nc2n(C)c1=O | – | > 10 µM | – | > 10 | – | – | – | – | – | > 10 | – | – | – | > 10 µM | – | > 10 | – | > 10 | – | – |
| Cc1cc(C)c(-c2noc(-c3ccc(Cl)cc3)c2C2=NCCN2)c(C)c1 | – | 29.3 µM | – | 46.4 | – | 32.1 | – | > 100 | – | 34 | – | > 100 | – | – | – | 48 | – | 71.8 | – | 64.5 µM |
| CCCCCc1c(C)[nH]c(/C=C2\N=C(c3ccc[nH]3)C=C2Oc2ccc(OC)cc2)c1C | 141 nM and 40.4 nM | 0.328 µM and 0.315 µM | 209 | 0.924 | 85 nM and 38 nM | 1.17 | 0.44 µM and 0.098 µM | 1.99 | 125 | 0.998 | 180 nM and 48.2 nM | – | 180 nM and 41.2 nM | 1.12 µM and 0.207 µM | 32.1 nM and 29.1 nM | – | – | – | 37.3 nM and 26.9 nM | 1.13 µM and 0.127 µM |
| COc1ccc(C2CC(c3cccc(Nc4ccnc5cc(Cl)ccc45)c3)=NN2c2ccccc2)cc1 (stereo unspecified) | 3950 nM | > 100 µM | 282 | 17.5 | 418 nM | 12.2 | 6.9 µM | > 100 | 1360 | 31.4 | 3500 nM | 33.2 | 2850 nM | 38.8 µM | 1170 nM | 8.52 | – | – | 1120 nM | 18.7 µM |
| Nc1nc(Cl)cc2c1ncn2C1OC(CO)C(O)C1O (stereo unspecified) | > 100000 nM | > 100 µM | > 100000 | > 100 | > 100000 nM | > 100 | > 100 µM | > 100 | > 100000 | > 100 | > 100000 nM | > 100 | > 100000 nM | > 100 µM | > 100000 nM | > 100 | > 100 | > 100 | – | – |
| Oc1ccc(Br)cc1CN1CCN(Cc2ccc(Cl)cc2)CC1 | 21200 nM | 80.9 µM | 22800 | 66.5 | 25700 nM | > 100 | 37.8 µM | > 100 | 16500 | 59.4 | 31700 nM | > 100 | 24800 nM | > 100 µM | 19100 nM | 80.9 | – | – | 21100 nM | > 100 µM |
| N=C(N)c1ccc(-c2ccc(-c3ccco3)o2)cc1 | 3930 nM | 17.1 µM | 2190 | 5.53 | 2430 nM | 6.6 | 9.44 µM | 23.2 | 1840 | 3.73 | 4240 nM | 15.3 | 8220 nM | 30.7 µM | 3170 nM | 10.7 | – | – | 3040 nM | 10.3 µM |
| COC(=O)C1=C(O)C(C(=O)OC)[C@@]2(O)[C@@H](C(=O)OC)C(c3ccc(OC(=O)C(Cc4ccccc4)NC(C)=O)cc3)C[C@@H]1[C@@H]2C(=O)OC (stereo partly specified) | 18300 nM | 43.5 µM | – | – | 20500 nM | > 100 | 36.4 µM | > 100 | 13900 | 50.5 | – | – | 23100 nM | 59.2 µM | 3350 nM | > 100 | 95.7 | > 100 | 20600 nM | 45.1 µM |
| O=C(c1ccc(Cl)cc1)N(C(=S)N1CCN(c2ccccc2)CC1)C1CCCCC1 | – | > 100 µM | – | > 100 | – | > 100 | – | > 100 | – | > 100 | – | > 100 | – | > 100 µM | – | > 100 | – | – | – | > 100 µM |
| CCOC(=O)C(=C=Cc1cccs1)C(=O)c1ccccc1 | – | 29.5 µM | – | 80.9 | – | 46 | – | – | – | 25.5 | – | 33.3 | – | 29.3 µM | – | 49 | – | 31 | – | 27.7 µM |
